Read-outs that look alike come from different tables or passages of the source.
Tests used:
[1] = target: T1, TYK2-JH2 domain (Homo sapiens, UniProt P29597); assay: Binding activity test for JH2 domain of TYK2 (Tb-antibody/tracer FRET); conditions: for JAK1/TYK2 selectivity: ratio JAK1-JH2 IC50 / TYK2-JH2 IC50
T1 construct: IC50 on JH2 domain activity (nM)
How it was run: (§1)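 Compounds tested as 11-point 3-fold serial dilutions against the JH2 domain in a Tb-antibody/tracer FRET binding format. Plates incubated 60 min at 25° C, then overnight at 4° C, before FRET reading.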

[2] = target: T2, Ba/F3-FL-TYK2-P760L cells (Homo sapiens, UniProt P29597, P760L, cells depend on it); assay: Anti-proliferative assay, Ba/F3-FL-TYK2-P760L cells (Cell-Titer Glo); assay type: cell-based; conditions: 72 h, read-out: BaF3-FL-T2P760L IC50
T2 construct: BaF3-FL-T2P760L (nM)
How it was run: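 Ba/F3 cells made IL-3-independent by TEL-fused or full-length mutant JAK-family kinases, seeded at 2000/well and dosed after 24 h with 9 three-fold dilutions topping at 20 μM. Viability after 72 h at 37 °C, 5% CO2 by Cell-Titer Glo ATP luminescence.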

[3] = test system: pSTAT1; assay: Phosphorylation inhibition of STAT in human whole blood, IFN-alpha stimulated (flow cytometry); assay type: cell-based; conditions: 20 min, read-out: IC50 on pSTAT1 inhibition in h WB
How it was run: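 Freshly prepared PBMC or freshly collected whole blood stimulated with human Universal Type I IFN-alpha for 20 min, then fixed, permeabilized on ice and stained for CD3 and pSTAT1 (Y701). pSTAT1 read by flow cytometry; IC50 from 4-parameter logistic fit.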

[4] = test system: pSTAT1; assay: Phosphorylation inhibition of STAT in human PBMC, IFN-alpha stimulated (flow cytometry); assay type: cell-based; conditions: 20 min, read-out: IC50 on pSTAT1 inhibition in hPBMC
Description: Phosphorylation Inhibition of STAT in Human PBMC and Human Whole Blood Testing:
The inhibitory potential of test articles in human PBMC and human whole blood assay was evaluated by the method of flow cytometry.
IFN-alpha will activate JAK1 and TYK2 kinase in T cells by binding to IFN receptors, and then lead to phosphorylation of STAT1 and STAT2. The phosphorylated STAT1 enter nuclear and promote transcription and expression of IFN-gamma. To evaluate the efficacy of TYK2i in T cells, freshly prepared human PBMC or freshly collected human whole blood will be stimulated with certain unit of human IFN-alpha (Universal Type I IFN(1MU), R&D, 11200-2) for 20 mins in incubator. After stimulation, fix cells with Phosflow™ Fix Buffer I (BD, 557870), and then collect fixed cells by centrifugation (500 g, 8 min). Wash cells once with pre-cooled PBS, and then permeabilize cells with cold Perm Buffer III buffer (BD, 558050) for 45 mins on ice. Collect cells by centrifugation (600 g, 8 min) and washed twice with cold PBS. Stain cells with anti-human CD3 (FITC Mouse Anti-Human CD3, BD, 555332) and anti-pSTAT1_Y701(Alexa Fluor 647 Mouse Anti-Stat1 (pY701), BD, 612597) antibodies. Detect pSTAT1 by flow cytometry (CytoFlex S) and analyze data with FlowJo and GraphPad Prism 8 software. IC50 values of test articles were determined using 4-parameter logistic equation.

[5] = Plasma protein binding by equilibrium dialysis; assay type: in vitro ADME; conditions: human plasma, equilibrium dialysis 5 hours at 37° C.; read-out: % Bound (human) (converted)
How it was run: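 Compound spiked into plasma at 0.2 and 2 μM was dialyzed against PBS for 5 h at 37° C with shaking, in duplicate. Plasma and buffer chambers were matrix-matched, protein-precipitated and analysed by LC-MS/MS to derive % unbound, % bound and % recovery.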

[6] = Microsomal metabolic stability assay; assay type: in vitro ADME; conditions: pH 7.4, 0.5 mg/mL protein, 1 μM compound
How it was run: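 Test article at 1 μM with 0.5 mg/mL microsomal protein and 2 mM NADPH, in 100 mM potassium phosphate pH 7.4 with 1.0 mM EDTA at 37 °C. Sampled at 0–45 min and quantified by LC/MS/MS. T1/2 from the slope of ln % remaining vs time.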

[7] = Hepatocytes metabolic stability assay; assay type: in vitro ADME; conditions: cryopreserved hepatocytes, human hepatocytes, 1.0×10^6 cells/mL; for CLint scaled at 1 μM: read-out: Human hepatocyte Clint(liver); for half-life at 1 μM: read-out: Human hepatocyte stability T1/2
How it was run: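 Cryopreserved hepatocytes (1.0×10^6 cells/mL final) were incubated with test compound at 1 μM at 37 °C and sampled at 0, 15, 30, 60 and 120 min, with acetonitrile quench and LC-MS/MS. k came from log-linear % remaining versus time, giving T1/2 and CLint.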

[8] = target: T3, JAK1 (Homo sapiens, UniProt P23458); assay: JAK1 kinase activity, microfluidic assay (Caliper EZ Reader II); assay type: biochemical; conditions: JAK1 5 nM, 1 mM ATP
T3 construct: purchased Carna Biosciences
How it was run: (§2)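 Human JAK1, JAK2 or TYK2 enzyme was used in 50 mM HEPES, 10 mM MgCl2, 2 mM DTT and 0.01% Brij35, tuned to 10% conversion of a FAM-labelled peptide. Threefold dilutions of compound (top 5 µM, 1% DMSO) were pre-incubated with enzyme for 10 min, and reactions were stopped with EDTA. Phosphorylation was read by microfluidic mobility shift, and IC50 came from percent-inhibition curves.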

[9] = target: T4, JAK2 (Homo sapiens, UniProt O60674); assay: JAK2 kinase activity, microfluidic assay (Caliper EZ Reader II); assay type: biochemical; conditions: JAK2 0.125 nM, 1 mM ATP
T4 construct: purchased Carna Biosciences
How it was run: as §2

[10] = target: T5, TYK2 (Homo sapiens, UniProt P29597); assay: TYK2 kinase activity, microfluidic assay (Caliper EZ Reader II); assay type: biochemical; conditions: TYK2 1 nM, 1 mM ATP
T5 construct: purchased Carna Biosciences
How it was run: as §2

[11] = target: T6, JAK1-JH2 domain (Homo sapiens, UniProt P23458); assay: Binding activity test for JH2 domain of JAK1 (Tb-antibody/tracer FRET)
T6 construct: IC50 on JH2 domain activity (nM)
How it was run: as §1

[12] = human whole blood, IFN-alpha 20 mins, CD3 cells
[13] = human PBMC, IFN-alpha 20 mins, CD3 cells
[14] = dog liver microsomes, read-out: Dog LM Clint
[15] = dog liver microsomes, read-out: Dog LM T½
[16] = human liver microsomes, read-out: Human LM Clint
[17] = human liver microsomes, read-out: Human LM T½
[18] = rat liver microsomes, read-out: Rat LM Clint
[19] = rat liver microsomes, read-out: Rat LM T½

T2 sequence (P29597 whole entry P760L): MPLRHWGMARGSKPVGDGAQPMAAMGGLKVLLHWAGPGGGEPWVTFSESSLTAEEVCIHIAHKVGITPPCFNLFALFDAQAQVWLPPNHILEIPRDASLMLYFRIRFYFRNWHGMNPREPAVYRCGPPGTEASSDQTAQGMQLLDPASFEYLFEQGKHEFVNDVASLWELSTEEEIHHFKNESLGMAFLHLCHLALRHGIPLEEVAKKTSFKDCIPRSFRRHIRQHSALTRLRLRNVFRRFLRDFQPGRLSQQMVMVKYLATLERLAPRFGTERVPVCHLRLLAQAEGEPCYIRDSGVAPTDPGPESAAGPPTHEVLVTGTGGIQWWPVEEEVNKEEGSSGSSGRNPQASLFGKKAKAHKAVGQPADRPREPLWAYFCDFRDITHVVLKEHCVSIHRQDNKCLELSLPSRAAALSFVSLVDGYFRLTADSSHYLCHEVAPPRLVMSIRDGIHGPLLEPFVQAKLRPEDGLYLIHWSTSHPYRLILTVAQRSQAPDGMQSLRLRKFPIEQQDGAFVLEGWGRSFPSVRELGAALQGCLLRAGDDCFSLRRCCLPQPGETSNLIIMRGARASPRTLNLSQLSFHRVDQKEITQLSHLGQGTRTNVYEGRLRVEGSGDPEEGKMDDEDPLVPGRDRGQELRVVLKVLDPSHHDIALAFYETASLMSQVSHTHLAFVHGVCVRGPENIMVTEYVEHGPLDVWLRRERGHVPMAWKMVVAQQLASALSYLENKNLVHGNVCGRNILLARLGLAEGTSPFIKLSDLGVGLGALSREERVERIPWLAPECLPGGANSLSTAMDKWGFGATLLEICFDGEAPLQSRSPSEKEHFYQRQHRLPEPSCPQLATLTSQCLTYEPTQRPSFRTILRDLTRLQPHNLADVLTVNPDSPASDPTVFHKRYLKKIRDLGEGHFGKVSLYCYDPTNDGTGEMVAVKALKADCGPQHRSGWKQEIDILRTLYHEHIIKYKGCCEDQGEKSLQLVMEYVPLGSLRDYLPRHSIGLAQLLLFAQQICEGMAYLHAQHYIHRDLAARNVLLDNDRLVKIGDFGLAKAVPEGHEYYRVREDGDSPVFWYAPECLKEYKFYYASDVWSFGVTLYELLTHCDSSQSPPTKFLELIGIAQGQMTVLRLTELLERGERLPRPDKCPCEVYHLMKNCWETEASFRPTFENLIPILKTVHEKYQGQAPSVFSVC
T1 sequence (P29597 589-875 limits assumed): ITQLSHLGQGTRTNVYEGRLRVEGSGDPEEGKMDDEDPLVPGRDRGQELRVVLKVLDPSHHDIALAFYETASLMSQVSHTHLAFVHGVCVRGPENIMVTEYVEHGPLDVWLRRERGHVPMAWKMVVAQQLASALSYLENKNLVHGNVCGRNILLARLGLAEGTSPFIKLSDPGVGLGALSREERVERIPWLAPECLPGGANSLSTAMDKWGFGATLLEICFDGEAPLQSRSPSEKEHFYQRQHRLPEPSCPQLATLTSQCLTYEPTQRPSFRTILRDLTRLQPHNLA
T6 sequence (P23458 583-855 limits assumed): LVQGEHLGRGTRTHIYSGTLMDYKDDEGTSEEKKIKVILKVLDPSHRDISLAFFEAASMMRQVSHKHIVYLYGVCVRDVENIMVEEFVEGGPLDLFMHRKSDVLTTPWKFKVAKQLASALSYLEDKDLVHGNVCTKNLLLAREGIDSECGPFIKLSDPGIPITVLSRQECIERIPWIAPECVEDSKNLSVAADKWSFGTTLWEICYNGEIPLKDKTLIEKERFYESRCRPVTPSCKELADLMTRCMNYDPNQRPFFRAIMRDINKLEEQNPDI
T3 sequence (P23458 whole entry): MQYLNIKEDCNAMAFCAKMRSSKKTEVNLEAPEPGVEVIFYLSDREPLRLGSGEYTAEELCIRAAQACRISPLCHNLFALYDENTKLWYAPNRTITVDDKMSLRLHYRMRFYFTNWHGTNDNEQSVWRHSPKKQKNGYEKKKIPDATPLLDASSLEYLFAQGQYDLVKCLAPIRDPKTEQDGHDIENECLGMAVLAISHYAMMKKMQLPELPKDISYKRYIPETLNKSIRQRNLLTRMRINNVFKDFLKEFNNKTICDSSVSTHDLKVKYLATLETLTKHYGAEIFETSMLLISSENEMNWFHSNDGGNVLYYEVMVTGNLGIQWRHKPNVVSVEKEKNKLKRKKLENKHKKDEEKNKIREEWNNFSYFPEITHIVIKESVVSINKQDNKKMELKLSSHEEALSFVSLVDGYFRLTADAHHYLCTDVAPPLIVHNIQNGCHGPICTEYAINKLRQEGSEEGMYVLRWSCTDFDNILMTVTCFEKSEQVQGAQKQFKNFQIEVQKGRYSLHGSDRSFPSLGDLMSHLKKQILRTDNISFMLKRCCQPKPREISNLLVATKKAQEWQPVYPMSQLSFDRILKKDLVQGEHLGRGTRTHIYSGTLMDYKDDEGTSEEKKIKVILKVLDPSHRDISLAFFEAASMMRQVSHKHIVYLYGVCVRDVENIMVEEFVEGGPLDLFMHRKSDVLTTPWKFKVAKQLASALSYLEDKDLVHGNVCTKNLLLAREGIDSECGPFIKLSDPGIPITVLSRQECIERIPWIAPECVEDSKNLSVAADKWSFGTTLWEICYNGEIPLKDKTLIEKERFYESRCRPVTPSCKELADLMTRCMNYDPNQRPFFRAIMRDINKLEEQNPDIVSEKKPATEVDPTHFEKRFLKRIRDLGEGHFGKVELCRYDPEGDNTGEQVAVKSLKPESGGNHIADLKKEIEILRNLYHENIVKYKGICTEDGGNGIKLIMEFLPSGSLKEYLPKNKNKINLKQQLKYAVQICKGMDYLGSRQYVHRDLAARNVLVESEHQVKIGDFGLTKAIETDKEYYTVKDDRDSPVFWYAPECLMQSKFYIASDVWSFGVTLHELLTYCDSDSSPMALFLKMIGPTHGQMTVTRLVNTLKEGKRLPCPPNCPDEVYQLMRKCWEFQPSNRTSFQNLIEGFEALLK
T4 sequence (O60674 whole entry): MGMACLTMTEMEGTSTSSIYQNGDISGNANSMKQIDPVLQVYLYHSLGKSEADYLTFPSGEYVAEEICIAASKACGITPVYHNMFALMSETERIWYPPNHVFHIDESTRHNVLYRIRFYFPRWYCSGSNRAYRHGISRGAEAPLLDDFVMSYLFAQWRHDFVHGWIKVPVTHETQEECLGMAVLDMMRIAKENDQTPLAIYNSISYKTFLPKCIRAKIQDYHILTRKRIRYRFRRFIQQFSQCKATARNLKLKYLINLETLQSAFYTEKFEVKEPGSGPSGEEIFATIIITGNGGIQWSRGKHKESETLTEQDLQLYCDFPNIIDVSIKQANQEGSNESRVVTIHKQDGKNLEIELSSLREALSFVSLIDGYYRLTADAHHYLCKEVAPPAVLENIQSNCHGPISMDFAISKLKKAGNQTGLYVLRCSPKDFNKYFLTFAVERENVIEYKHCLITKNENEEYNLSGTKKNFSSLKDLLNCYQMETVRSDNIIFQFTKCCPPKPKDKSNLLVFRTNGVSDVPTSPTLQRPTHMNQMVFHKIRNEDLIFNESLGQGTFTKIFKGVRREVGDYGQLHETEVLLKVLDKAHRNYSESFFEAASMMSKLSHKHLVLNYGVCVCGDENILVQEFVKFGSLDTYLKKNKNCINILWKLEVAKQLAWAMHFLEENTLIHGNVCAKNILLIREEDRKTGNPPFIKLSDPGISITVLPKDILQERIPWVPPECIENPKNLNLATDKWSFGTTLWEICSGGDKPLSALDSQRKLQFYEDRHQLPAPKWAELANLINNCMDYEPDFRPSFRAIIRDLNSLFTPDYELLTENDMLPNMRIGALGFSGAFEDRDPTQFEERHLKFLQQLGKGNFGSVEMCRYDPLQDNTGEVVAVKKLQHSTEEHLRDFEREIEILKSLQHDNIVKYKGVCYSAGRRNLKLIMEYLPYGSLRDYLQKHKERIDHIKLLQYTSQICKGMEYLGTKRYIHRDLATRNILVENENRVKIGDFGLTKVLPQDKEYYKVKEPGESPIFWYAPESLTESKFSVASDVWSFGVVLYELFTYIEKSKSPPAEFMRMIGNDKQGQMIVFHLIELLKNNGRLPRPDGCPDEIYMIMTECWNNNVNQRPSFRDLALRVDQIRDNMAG
T5 sequence (P29597 whole entry): as the sequence (P29597 whole entry P760L) above, with L760P counted along it

Row | IC50 [1] [nM] | GI50 [2] [nM] | IC50 [3, 12] [nM] | IC50 [4, 13] [nM] | fraction unbound at 5 h [5] | microsomal CLint at 1 μM [6, 14] [µL/min/mg] | half-life at 1 μM [6, 15] [h] | microsomal CLint at 1 μM [6, 16] [µL/min/mg] | half-life at 1 μM [6, 17] [h] | microsomal CLint at 1 μM [6, 18] [µL/min/mg] | half-life at 1 μM [6, 19] [h] | CLint scaled at 1 μM [7] [mL/min/kg] | half-life at 1 μM [7] [h] | IC50 [8] [nM] | IC50 [9] [nM] | IC50 [10] [nM] | JAK1/TYK2 selectivity [1] | IC50 [11] [nM] | SMILES | IC50 ([3]; Homo sapiens) [nM] | IC50 ([4]; Homo sapiens, PBMC) [nM]
1 | 0.25 | 74.5 | 376 | 107 | 0.025 | – | – | – | – | – | – | – | – | – | – | – | – | – | [2H]C([2H])([2H])NC(=O)c1cnc(NC(=O)C2CC2)cc1Nc1cn(CC2CC2)c2ncn(CC)c(=O)c12 [Example 213, 6-(Cyclopropanecarboxamido)-4-((7-(cyclopropylmethyl)-3-ethyl-4-oxo-4,7-dihydro-3H-pyrrolo[2,3-d]pyrimidin-5-yl)amino)-N-(methyl-d3)nicotinamide] | – | –
2 | – | 48.7 | 823 | 79.5 | – | 5.63 | 4.1 | 27.4 | 0.843 | 21.9 | 1.05 | – | – | – | – | – | – | – | [2H]C([2H])([2H])NC(=O)c1nnc2cc1Nc1cc(cc(-c3ncn(C)n3)c1OC)COCc1cc(F)cc(n1)N2 [Example 71, 19-Fluoro-10-methoxy-N-(methyl-d3)-11-(1-methyl-1H-1,2,4-triazol-3-yl)-15-oxa-2,4,5,8,21-pentaazatetracyclo[15.3.1.1^{3,7}.1^{9,13}]tricosa-1(21),3,5,7(23),9(22),10,12,17,19-nonaene-6-carboxamide] | – | –
3 | – | 54.3 | 863 | 428 | – | 20.8 | 1.11 | 77.7 | 0.298 | 290 | 0.0798 | < 7.35 | > 4 | – | – | – | – | – | [2H]C([2H])([2H])NC(=O)c1nnc(NC(=O)C2CC2)cc1Nc1csc2ccn(CC)c(=O)c12 [Example 197, 6-(Cyclopropanecarboxamido)-N-(methyl-d3)-4-((5-ethyl-4-oxo-4,5-dihydrothieno[3,2-c]pyridin-3-yl)amino)pyridazine-3-carboxamide] | – | –
4 | – | 45.7 | 147 | 33.3 | 0.113 | – | – | – | – | – | – | – | – | > 5000 | > 5000 | > 5000 | – | – | [2H]C([2H])([2H])NC(=O)c1cnc(NC(=O)C2CC2)cc1Nc1ccc2cnn(CC#N)c2c1OC [Example 202, 4-((1-(Cyanomethyl)-7-methoxy-1H-indazol-6-yl)amino)-6-(cyclopropanecarboxamido)-N-(methyl-d3)nicotinamide] | – | –
5 | 0.31 | 64.9 | 422 | 35.1 | – | – | – | – | – | – | – | 8.6 | 3.44 | – | – | – | 28.3 | 8.76 | [2H]C([2H])([2H])NC(=O)c1cnc(NC(=O)C2CC2)cc1Nc1ccn2ncc(C)c2c1OC [Example 169, 6-(Cyclopropanecarboxamido)-4-((4-methoxy-3-methylpyrazolo[1,5-a]pyridin-5-yl)amino)-N-(methyl-d3)nicotinamide] | – | –
6 | 1.44 | 31.9 | 581 | 75.7 | – | – | – | – | – | – | – | – | – | – | – | – | – | – | [2H]C([2H])([2H])NC(=O)c1cnc(Nc2ccc(F)cn2)cc1Nc1cn(C)c2c(F)cn(CC)c(=O)c12 [Example 125, 4-((5-Ethyl-7-fluoro-1-methyl-4-oxo-4,5-dihydro-1H-pyrrolo[3,2-c]pyridin-3-yl)amino)-6-((5-fluoropyridin-2-yl)amino)-N-(methyl-d3)nicotinamide] | – | –
7 | 0.154 | 51.6 | 471 | 20.7 | – | – | – | – | – | – | – | 11.2 | 2.61 | – | – | – | 88.3 | 13.6 | [2H]C([2H])([2H])NC(=O)c1cnc(NC(=O)C2CC2)cc1Nc1ccn2ncc(CC)c2c1OC [Example 166, 6-(Cyclopropanecarboxamido)-4-((3-ethyl-4-methoxypyrazolo[1,5-a]pyridin-5-yl)amino)-N-(methyl-d3)nicotinamide] | – | –

Row | SMILES | IC50 [1] [nM] | GI50 [2] [nM] | IC50 [3, 12] [nM] | IC50 [4, 13] [nM] | fraction unbound at 5 h [5] | microsomal CLint at 1 μM [6, 14] [µL/min/mg] | half-life at 1 μM [6, 15] [h] | microsomal CLint at 1 μM [6, 16] [µL/min/mg] | half-life at 1 μM [6, 17] [h] | microsomal CLint at 1 μM [6, 18] [µL/min/mg] | half-life at 1 μM [6, 19] [h] | CLint scaled at 1 μM [7] [mL/min/kg] | half-life at 1 μM [7] [h] | IC50 [8] [nM] | IC50 [9] [nM] | IC50 [10] [nM] | JAK1/TYK2 selectivity [1] | IC50 [11] [nM] | IC50 ([3]; Homo sapiens) [nM] | IC50 ([4]; Homo sapiens, PBMC) [nM]
8 | [2H]C([2H])([2H])NC(=O)c1cnc(NC(=O)C2CC2)cc1Nc1csc2cnn(CC)c(=O)c12 [Example 231, 6-(Cyclopropanecarboxamido)-4-((5-ethyl-4-oxo-4,5-dihydrothieno[2,3-d]pyridazin-3-yl)amino)-N-(methyl-d3)nicotinamide] | 0.979 | 65.9 | – | – | – | – | – | – | – | – | – | – | – | – | – | – | – | – | 14400 | 3510
